According to patent US20200339548A1, “PYRIMIDINE DERIVATIVES AND THEIR USE FOR THE TREATMENT OF CANCER” (Adorx Therapeutics Limited, priority 2017, published 2020):
Structures can show the parent of a compound that is named as a salt. Where two headings read alike, the source gives them in different places.

Tests used:
Human PBMCs = test: CD3/CD28 stimulated IL-2 release NECA reversal assay; format: cell-based; settings: Homo sapiens, PBMC, read-out: IL-2 release NECA reversal IC50 (nM), 1 uM NECA, 24 hours
Experimental: Blood is drawn from healthy volunteers using sodium citrate as the anticoagulant (0.3% final concentration). […] 50 μl diluted compound mix is added to the cells, to obtain final concentrations of 1 ug/ml CD28 antibody, 1 uM NECA and 0.003-10 μM adenosine receptor antagonist. Assay plates are incubated for 24 hours at 37° C. in a humidified incubator.

Adenosine A2a receptor = biological target: T1, Adenosine A2a receptor (Homo sapiens, UniProt P29274); test: Adenosine receptor TR-FRET binding assay, A2a; settings: displacement of 100 nM CA200645, CHO cell membranes
T1 construct: expressed in transfected cells; host or cells: CHO cell membranes
T1 sequence (P29274 whole entry): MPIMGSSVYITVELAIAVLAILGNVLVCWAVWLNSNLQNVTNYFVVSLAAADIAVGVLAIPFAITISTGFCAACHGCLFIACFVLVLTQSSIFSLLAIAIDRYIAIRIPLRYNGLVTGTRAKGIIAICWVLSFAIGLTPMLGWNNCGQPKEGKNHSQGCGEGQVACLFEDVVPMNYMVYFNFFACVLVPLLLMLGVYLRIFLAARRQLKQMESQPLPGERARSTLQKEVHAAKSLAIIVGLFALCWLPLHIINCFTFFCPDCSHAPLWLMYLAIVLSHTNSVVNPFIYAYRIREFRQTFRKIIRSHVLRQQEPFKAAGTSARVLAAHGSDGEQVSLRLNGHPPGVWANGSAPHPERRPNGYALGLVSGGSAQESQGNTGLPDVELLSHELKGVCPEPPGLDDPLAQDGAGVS
In short: (§1)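 Competition TR-FRET binding in CHO cell membranes expressing terbium-labelled human receptors, displacing fluorescent XAC (CA200645; 30 nM for A2b, 100 nM for A1, A2a, A3); 2 h at room temperature with saponin buffer, 1% DMSO. 665/620 nm ratio; non-specific with 10 μM XAC; Ki by Cheng–Prusoff from IC50.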

Adenosine A2b receptor = biological target: T2, Adenosine A2b receptor (Homo sapiens, UniProt P29275); test: Adenosine receptor TR-FRET binding assay, A2b; settings: Table 9, further testing; displacement of 30 nM CA200645, CHO cell membranes
T2 construct: expressed in transfected cells; host or cells: CHO cell membranes
T2 sequence (P29275 1-332): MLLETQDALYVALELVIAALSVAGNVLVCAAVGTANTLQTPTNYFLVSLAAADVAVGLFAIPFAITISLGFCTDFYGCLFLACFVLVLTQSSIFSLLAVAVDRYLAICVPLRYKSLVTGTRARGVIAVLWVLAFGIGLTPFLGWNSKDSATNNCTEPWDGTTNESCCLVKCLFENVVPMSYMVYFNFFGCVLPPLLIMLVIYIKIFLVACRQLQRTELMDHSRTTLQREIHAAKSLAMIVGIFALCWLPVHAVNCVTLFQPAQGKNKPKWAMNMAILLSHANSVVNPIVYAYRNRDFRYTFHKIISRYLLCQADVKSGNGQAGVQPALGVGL
In short: as §1

Adenosine A1 receptor = biological target: T3, Adenosine A1 receptor (Homo sapiens, UniProt P30542); test: Adenosine receptor TR-FRET binding assay, A1; settings: Table 9, further testing; displacement of 100 nM CA200645, CHO cell membranes
T3 construct: expressed in transfected cells; host or cells: CHO cell membranes
T3 sequence (P30542 1-326): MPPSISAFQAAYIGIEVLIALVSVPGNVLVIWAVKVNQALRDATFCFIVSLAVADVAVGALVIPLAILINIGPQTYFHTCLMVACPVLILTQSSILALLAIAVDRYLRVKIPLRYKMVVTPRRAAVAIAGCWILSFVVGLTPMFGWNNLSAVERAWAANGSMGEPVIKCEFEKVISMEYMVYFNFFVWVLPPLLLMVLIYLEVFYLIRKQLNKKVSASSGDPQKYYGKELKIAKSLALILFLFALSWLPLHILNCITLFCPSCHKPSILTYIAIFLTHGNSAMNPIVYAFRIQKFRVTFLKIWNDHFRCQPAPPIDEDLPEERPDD
In short: as §1

Adenosine A3 receptor = biological target: T4, Adenosine A3 receptor (Homo sapiens, UniProt P0DMS8); test: Adenosine receptor TR-FRET binding assay, A3
T4 construct: expressed in transfected cells; host or cells: CHO cell membranes
T4 sequence (P0DMS8 1-318): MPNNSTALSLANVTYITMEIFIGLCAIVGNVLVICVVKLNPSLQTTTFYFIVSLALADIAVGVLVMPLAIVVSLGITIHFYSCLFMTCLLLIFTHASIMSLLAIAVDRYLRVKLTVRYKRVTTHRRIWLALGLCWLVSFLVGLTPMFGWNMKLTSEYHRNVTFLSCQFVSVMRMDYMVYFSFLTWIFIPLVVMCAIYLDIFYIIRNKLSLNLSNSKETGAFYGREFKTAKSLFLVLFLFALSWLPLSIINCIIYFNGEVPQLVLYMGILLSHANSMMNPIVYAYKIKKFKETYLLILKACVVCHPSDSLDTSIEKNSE
In short: as §1

[1] = Table 9, further testing, displacement of 100 nM CA200645, CHO cell membranes, read-out: A3 Ki

SMILES	IC50 (Human PBMCs) [nM]	Ki (Adenosine A2a receptor; Table 8, Cheng and Prusoff) [nM]	Ki (Adenosine A2a receptor; Table 9, further testing) [nM]	Ki (Adenosine A2b receptor) [nM]	Ki (Adenosine A1 receptor) [nM]	Ki (Adenosine A3 receptor; [1]) [nM]	Ki (Adenosine A3 receptor) [nM]
Cc1cccnc1CNC(=O)c1nnc(-c2ccco2)nc1N [Example 2, 5-Amino-3-(2-furyl)-N-[(3-methyl-2-pyridyl)methyl]-1,2,4-triazine-6-carboxamide]	408	0.9	0.79	95	318	50	–
Cc1cccnc1CNC(=O)c1cnc(-c2cccc(F)c2)nc1N [Example 4.3, 4-Amino-2-(3-fluorophenyl)-N-[(3-methyl-2-pyridyl)methyl]pyrimidine-5-carboxamide]	705	12	12	689	49	54	–
COc1cccc(F)c1CNC(=O)c1cnc(-c2cccc(F)c2)nc1N [Example 5.2, 4-Amino-N-[(2-fluoro-6-methoxy-phenyl)methyl]-2-(3-fluorophenyl)pyrimidine-5-carboxamide]	1920	20	20	113	66	–	–
CCOc1cccc(F)c1CNC(=O)c1cnc(-c2cccc(F)c2)nc1N [Example 5.3, 4-Amino-N-[(2-ethoxy-6-fluoro-phenyl)methyl]-2-(3-fluorophenyl)pyrimidine-5-carboxamide]	1540	20	20	341	–	–	–
Nc1nc(-c2ccco2)ncc1C(=O)NCc1cccc(Cl)c1 [Example 5.12, 4-Amino-N-[(3-chlorophenyl)methyl]-2-(2-furyl)pyrimidine-5-carboxamide]	345	4.1	3.9	1570	962	1160	–
Nc1nc(-c2ccco2)ncc1C(=O)NCc1c(Cl)cccc1Cl [Example 5.16, 4-Amino-N-[(2,6-dichlorophenyl)methyl]-2-(2-furyl)pyrimidine-5-carboxamide]	102	0.93	0.64	297	1350	–	–
Nc1nc(-c2ccco2)ncc1C(=O)NCc1ccccc1F [Example 5.18, 4-Amino-N-[(2-fluorophenyl)methyl]-2-(2-furyl)pyrimidine-5-carboxamide]	230	3.8	3.3	215	1760	1940	–
COc1ccccc1CNC(=O)c1cnc(-c2ccco2)nc1N [Example 5.20, 4-Amino-2-(2-furyl)-N-[(2-methoxyphenyl)methyl]pyrimidine-5-carboxamide]	122	1.1	0.95	1190	426	757	–
Nc1nc(-c2ccco2)ncc1C(=O)NCc1ncccc1Cl [Example 5.21, 4-Amino-N-[(3-chloro-2-pyridyl)methyl]-2-(2-furyl)pyrimidine-5-carboxamide]	123	1.5	1.5	1160	1850	–	1190
Nc1nc(-c2ccco2)ncc1C(=O)NC1CCc2ccccc21 (stereo not shown) [Example 5.23, 4-Amino-2-(2-furyl)-N-indan-1-yl-pyrimidine-5-carboxamide]	381	10	10	–	4750	–	–
Nc1nc(-c2ccco2)ncc1C(=O)NC1Cc2ccccc2C1 [Example 5.24, 4-Amino-2-(2-furyl)-N-indan-2-yl-pyrimidine-5-carboxamide]	364	2.4	2.6	1600	1270	–	–
Nc1nc(-c2ccco2)ncc1C(=O)NCc1cccc2cccnc12 [Example 5.25, 4-Amino-2-(2-furyl)-N-(8-quinolylmethyl) pyrimidine-5-carboxamide]	15	1.2	0.83	1470	706	506	–
Cc1cccnc1CNC(=O)c1nnc(-c2cccc(F)c2)nc1N [Example 7, 5-Amino-3-(3-fluorophenyl)-N-[(3-methyl-2-pyridyl)methyl]-1,2,4-triazine-6-carboxamide]	830	11	12	383	42	13	–
Nc1nc(-c2cccc(F)c2)ncc1C(=O)NCc1ccccc1O [Example 10.1, 4-Amino-2-(3-fluorophenyl)-N-[(2-hydroxyphenyl)methyl]pyrimidine-5-carboxamide]	216	13	13	54	93	421	–
Nc1nc(-c2cccc(F)c2)ncc1C(=O)NCc1c(Cl)cccc1Cl [Example 10.6, 4-Amino-N-[(2,6-dichlorophenyl)methyl]-2-(3-fluorophenyl)pyrimidine-5-carboxamide]	685	32	32	1310	231	160	–
COc1ccccc1CNC(=O)c1cnc(-c2cccc(F)c2)nc1N [Example 10.8, 4-Amino-2-(3-fluorophenyl)-N-[(2-methoxyphenyl)methyl]pyrimidine-5-carboxamide]	2000	27	27	1750	143	230	–
Nc1nc(-c2cccc(F)c2)ncc1C(=O)NCc1cccc2cccnc12 [Example 10.13, 4-Amino-2-(3-fluorophenyl)-N-(8-quinolylmethyl)pyrimidine-5-carboxamide]	926	4.7	3.3	415	38	105	–
CCn1ccnc1CNC(=O)c1cnc(-c2cccc(F)c2)nc1N [Example 10.14, 4-Amino-N-[(1-ethylimidazol-2-yl)methyl]-2-(3-fluorophenyl)pyrimidine-5-carboxamide]	1240	42	42	1140	159	609	–
Nc1nc(-c2ccco2)ncc1C(=O)NCc1ccccc1O [Example 11.2, 4-amino-2-(2-furyl)-N-[(2-hydroxyphenyl)methyl]pyrimidine-5-carboxamide]	71	1.2	0.71	50	787	–	–
Cc1cccnc1CNC(=O)c1c(N)nc(-c2ccco2)nc1OCCN [Example 23.1, 4-Amino-6-(2-aminoethoxy)-2-(2-furyl)-N-[(3-methyl-2-pyridyl)methyl]pyrimidine-5-carboxamide]	–	–	0.62	490	59	73	–
Cc1cccnc1CNC(=O)c1c(N)nc(-c2ccco2)nc1OCCCN [Example 23.5, 4-Amino-6-(3-aminopropoxy)-2-(2-furyl)-N-[(3-methyl-2-pyridyl)methyl]pyrimidine-5-carboxamide dihydrochloride]	–	–	23	3060	1060	2150	–
Cn1ncnc1CNC(=O)c1c(N)nc(-c2cccc(C#N)c2)nc1OCCF [Example 24.7, 4-Amino-2-(3-cyanophenyl)-6-(2-fluoroethoxy)-N-[(2-methyl-1,2,4-triazol-3-yl)methyl]pyrimidine-5-carboxamide]	212	–	8.1	–	145	1610	–
